In ChEMBL document CHEMBL4507268 (2021) one finds residual activity, inhibition and IC50 data, which are given here for two compounds.

Test [1] addresses Serine/threonine-protein kinase OSR1 (Homo sapiens) (UniProt O95747). The note with it: Compound concentration 1000.0 nM.
Test [2] deals with BDNF/NT-3 growth factors receptor (Homo sapiens) (UniProt Q16620). As to conditions: Compound concentration 1000.0 nM; call rule not given here.
In test [3] the target is Cyclin-dependent kinase 4 (Homo sapiens) (UniProt P11802). As to conditions: Compound concentration 1000.0 nM.
Test [4] concerns the target Casein kinase I isoform alpha-like (Homo sapiens) (UniProt Q8N752). As to conditions: Compound concentration 1000.0 nM.
Test [5] addresses Tyrosine-protein kinase BTK (Homo sapiens) (UniProt Q06187). As to conditions: Compound concentration 1000.0 nM.
The target in test [6] is Mitogen-activated protein kinase kinase kinase 9 (Homo sapiens) (UniProt P80192). The note with it: Compound concentration 1000.0 nM.
Sequence of Mitogen-activated protein kinase kinase kinase 9 (Homo sapiens) (P80192 whole entry, looked up): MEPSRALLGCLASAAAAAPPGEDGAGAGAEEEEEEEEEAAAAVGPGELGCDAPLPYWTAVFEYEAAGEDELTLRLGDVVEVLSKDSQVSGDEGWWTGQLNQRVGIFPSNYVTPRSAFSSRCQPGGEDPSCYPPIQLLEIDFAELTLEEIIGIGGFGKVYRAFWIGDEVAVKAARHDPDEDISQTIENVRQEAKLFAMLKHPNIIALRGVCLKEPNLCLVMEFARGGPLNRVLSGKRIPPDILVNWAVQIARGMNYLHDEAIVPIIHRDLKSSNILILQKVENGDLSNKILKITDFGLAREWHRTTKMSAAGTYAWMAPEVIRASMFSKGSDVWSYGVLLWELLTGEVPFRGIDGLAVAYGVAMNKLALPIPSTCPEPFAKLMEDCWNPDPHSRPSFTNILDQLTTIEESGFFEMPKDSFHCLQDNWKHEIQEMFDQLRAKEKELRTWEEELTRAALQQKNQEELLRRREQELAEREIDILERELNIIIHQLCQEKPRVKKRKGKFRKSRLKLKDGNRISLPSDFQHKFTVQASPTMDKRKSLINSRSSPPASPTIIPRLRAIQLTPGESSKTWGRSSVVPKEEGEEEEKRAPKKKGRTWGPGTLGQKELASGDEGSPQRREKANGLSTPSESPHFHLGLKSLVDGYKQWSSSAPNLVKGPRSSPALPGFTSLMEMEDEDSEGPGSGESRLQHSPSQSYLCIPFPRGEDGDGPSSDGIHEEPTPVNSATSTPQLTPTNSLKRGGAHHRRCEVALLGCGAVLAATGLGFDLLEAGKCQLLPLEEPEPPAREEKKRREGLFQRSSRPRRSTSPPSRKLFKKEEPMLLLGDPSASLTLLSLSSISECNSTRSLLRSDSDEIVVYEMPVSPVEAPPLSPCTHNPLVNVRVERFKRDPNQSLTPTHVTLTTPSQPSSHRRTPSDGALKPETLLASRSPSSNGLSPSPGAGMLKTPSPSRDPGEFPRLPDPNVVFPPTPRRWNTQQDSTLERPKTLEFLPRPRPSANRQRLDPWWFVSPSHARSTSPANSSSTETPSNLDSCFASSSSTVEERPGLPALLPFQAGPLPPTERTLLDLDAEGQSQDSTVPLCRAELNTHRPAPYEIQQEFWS
Test [7] addresses Delta-type opioid receptor (Homo sapiens) (UniProt P41143). As to conditions: Compound concentration 10.0 uM.
The target of test [8] is Atypical kinase COQ8B, mitochondrial (Homo sapiens) (UniProt Q96D53). The note with it: Compound concentration 1000.0 nM.
Sequence of Atypical kinase COQ8B, mitochondrial (Homo sapiens) (Q96D53 whole entry): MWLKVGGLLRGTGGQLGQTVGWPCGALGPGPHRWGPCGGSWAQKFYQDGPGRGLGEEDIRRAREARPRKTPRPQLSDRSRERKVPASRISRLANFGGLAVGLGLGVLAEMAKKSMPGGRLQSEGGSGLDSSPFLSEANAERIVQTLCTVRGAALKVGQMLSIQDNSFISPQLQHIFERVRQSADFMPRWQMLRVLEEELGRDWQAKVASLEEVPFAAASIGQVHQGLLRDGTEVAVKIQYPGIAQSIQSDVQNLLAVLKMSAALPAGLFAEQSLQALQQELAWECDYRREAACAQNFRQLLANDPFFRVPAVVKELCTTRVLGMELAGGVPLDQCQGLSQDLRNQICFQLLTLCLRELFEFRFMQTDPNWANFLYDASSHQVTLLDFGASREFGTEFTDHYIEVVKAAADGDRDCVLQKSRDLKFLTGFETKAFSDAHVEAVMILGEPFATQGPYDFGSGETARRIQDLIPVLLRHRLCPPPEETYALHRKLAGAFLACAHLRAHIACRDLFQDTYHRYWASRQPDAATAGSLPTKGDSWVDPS
Test [9] concerns the target Serine/threonine-protein kinase PAK 5 (Homo sapiens) (UniProt Q9P286). The note with it: Compound concentration 1000.0 nM.
Test [10] has as its target Tyrosine-protein kinase JAK1 (Homo sapiens) (UniProt P23458). The note with it: Compound concentration 1000.0 nM.
For test [11], the target named is MAP kinase-activated protein kinase 2 (Homo sapiens) (UniProt P49137). The note with it: Compound concentration 1000.0 nM.
Test [12] concerns the target Serine/threonine-protein kinase WNK1 (Homo sapiens) (UniProt Q9H4A3). The note with it: Compound concentration 1000.0 nM.
Test [13] concerns the target T1, Muscle, skeletal receptor tyrosine-protein kinase (Homo sapiens) (UniProt O15146).
T1 sequence (whole entry): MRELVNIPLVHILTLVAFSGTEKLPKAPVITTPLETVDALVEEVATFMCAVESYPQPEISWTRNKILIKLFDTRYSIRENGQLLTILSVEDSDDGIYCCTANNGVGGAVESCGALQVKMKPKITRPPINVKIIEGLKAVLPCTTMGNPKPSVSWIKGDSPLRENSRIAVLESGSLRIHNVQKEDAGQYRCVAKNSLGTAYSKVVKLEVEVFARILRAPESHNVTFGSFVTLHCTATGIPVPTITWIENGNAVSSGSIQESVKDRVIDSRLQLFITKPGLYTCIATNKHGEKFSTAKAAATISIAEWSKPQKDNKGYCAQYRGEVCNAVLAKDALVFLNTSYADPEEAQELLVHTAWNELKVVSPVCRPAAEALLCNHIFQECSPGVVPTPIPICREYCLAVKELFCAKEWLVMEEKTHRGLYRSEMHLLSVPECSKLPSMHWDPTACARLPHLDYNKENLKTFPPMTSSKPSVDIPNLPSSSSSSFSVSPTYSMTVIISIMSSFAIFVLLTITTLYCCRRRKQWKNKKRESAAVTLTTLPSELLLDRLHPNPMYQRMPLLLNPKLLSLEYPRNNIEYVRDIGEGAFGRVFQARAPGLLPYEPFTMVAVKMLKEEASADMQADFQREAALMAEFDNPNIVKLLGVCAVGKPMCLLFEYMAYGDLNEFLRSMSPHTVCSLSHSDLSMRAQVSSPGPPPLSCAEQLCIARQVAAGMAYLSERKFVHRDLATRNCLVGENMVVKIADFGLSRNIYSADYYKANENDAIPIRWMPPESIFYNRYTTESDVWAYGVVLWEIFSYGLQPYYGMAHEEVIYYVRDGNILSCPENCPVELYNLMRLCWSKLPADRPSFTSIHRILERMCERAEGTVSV
As to conditions: Compound concentration 1000.0 nM.

Test [14] addresses Mitogen-activated protein kinase kinase kinase 19 (Homo sapiens) (UniProt Q56UN5). As to conditions: Compound concentration 1000.0 nM.
Test [15] addresses Casein kinase II subunit alpha' (Homo sapiens) (UniProt P19784). As to conditions: Compound concentration 1000.0 nM.
Test [16] addresses Cyclin-dependent kinase 11A (Homo sapiens) (UniProt Q9UQ88). The note with it: Compound concentration 1000.0 nM.
The test system of the next test is SK-BR-3. Description: Proliferation assay: SK-BR-3 (breast cancer). The note with it: Homo sapiens. It counts as functional, cell-based.
The target of test [17] is Cyclin-dependent kinase 17 (Homo sapiens) (UniProt Q00537). The note with it: Compound concentration 1000.0 nM.
The subject of test [18] is Phosphatidylinositol 4,5-bisphosphate 3-kinase catalytic subunit alpha isoform (Homo sapiens), P42336 [H1047L]. As to conditions: Compound concentration 1000.0 nM.

Sequence of Casein kinase I isoform alpha-like (Homo sapiens) (Q8N752 whole entry, canonical isoform): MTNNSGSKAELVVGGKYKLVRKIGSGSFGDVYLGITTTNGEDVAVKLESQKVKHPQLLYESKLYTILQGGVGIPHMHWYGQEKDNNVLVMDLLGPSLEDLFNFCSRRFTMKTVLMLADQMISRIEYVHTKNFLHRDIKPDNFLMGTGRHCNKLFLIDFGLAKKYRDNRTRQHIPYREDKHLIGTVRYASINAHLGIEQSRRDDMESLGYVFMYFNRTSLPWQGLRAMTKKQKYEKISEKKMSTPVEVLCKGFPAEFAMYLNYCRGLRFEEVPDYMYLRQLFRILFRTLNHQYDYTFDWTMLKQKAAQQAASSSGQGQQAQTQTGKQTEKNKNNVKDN
Sequence of Serine/threonine-protein kinase OSR1 (Homo sapiens) (O95747 2-527 limits assumed): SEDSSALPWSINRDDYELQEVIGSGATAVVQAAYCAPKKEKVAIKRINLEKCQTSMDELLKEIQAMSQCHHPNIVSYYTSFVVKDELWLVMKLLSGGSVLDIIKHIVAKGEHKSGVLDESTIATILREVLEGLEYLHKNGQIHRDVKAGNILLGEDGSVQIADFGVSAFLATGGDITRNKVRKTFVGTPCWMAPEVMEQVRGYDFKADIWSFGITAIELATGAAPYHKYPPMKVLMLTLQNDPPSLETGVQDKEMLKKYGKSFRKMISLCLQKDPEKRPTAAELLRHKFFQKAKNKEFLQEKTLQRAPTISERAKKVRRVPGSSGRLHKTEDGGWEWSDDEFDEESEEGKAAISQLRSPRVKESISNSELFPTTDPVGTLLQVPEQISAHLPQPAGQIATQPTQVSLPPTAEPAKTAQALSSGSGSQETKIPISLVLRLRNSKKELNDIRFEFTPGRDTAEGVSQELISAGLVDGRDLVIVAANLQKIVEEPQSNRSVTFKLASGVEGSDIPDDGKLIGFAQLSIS
Sequence of BDNF/NT-3 growth factors receptor (Homo sapiens) (Q16620 32-822 limits assumed): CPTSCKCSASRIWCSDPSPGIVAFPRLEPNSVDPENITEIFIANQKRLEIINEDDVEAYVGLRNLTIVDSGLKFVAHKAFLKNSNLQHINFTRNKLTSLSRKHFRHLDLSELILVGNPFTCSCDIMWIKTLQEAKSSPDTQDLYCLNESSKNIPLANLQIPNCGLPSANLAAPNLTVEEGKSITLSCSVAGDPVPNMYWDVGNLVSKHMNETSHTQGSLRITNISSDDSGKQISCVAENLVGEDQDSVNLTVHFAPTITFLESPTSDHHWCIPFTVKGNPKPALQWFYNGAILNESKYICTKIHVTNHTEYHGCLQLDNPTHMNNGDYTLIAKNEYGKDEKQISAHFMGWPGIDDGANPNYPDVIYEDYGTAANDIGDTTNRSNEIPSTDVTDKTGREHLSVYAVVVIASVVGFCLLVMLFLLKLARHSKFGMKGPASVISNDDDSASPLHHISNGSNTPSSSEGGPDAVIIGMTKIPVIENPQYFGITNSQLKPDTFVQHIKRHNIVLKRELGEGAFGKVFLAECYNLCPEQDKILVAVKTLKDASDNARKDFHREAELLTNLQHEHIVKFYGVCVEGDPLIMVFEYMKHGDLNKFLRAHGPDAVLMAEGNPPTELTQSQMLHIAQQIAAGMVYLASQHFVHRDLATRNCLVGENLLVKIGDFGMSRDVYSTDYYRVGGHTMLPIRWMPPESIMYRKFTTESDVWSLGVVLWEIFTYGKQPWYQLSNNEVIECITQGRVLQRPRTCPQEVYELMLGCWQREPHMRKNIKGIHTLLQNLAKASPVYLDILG
Sequence of Delta-type opioid receptor (Homo sapiens) (P41143 whole entry): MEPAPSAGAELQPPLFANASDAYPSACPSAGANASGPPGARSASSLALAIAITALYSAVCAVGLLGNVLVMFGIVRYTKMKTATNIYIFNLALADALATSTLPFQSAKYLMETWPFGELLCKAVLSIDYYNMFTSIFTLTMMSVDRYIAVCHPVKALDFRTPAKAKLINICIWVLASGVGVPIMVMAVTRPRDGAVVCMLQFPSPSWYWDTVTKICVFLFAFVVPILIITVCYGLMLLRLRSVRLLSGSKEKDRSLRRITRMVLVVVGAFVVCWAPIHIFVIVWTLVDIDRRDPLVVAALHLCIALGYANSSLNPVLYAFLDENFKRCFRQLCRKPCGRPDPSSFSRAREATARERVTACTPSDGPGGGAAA
Sequence of Casein kinase II subunit alpha' (Homo sapiens) (P19784 whole entry, looked up): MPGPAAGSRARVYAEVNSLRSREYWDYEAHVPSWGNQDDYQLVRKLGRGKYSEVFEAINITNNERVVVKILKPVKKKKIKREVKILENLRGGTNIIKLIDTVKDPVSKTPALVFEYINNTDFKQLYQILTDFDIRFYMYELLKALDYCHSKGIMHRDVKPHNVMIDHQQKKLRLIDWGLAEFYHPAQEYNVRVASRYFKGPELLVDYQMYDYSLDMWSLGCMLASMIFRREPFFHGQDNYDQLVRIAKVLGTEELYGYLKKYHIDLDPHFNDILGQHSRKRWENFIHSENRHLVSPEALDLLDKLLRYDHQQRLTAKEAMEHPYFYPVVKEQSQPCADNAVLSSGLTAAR
Sequence of Cyclin-dependent kinase 11A (Homo sapiens) (Q9UQ88 whole entry): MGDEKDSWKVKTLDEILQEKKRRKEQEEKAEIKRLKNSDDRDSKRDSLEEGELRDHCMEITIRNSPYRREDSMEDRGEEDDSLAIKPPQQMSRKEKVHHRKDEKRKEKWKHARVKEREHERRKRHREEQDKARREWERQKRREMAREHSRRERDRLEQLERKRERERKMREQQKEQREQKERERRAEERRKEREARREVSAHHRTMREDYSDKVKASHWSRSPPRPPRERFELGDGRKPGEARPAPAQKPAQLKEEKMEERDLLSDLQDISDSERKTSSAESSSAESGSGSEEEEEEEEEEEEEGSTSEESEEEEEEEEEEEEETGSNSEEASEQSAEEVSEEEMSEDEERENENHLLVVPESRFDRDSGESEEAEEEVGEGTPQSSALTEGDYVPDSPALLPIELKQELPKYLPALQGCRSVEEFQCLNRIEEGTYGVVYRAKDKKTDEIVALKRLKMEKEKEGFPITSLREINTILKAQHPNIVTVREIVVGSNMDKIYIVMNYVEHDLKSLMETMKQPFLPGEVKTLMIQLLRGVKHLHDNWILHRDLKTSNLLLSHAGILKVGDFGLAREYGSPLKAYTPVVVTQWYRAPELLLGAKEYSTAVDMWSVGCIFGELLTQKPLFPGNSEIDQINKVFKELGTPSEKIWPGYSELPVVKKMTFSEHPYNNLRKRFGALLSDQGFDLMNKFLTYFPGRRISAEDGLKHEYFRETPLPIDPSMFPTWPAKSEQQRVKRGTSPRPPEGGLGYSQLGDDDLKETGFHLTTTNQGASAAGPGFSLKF

The term inhibition denotes the change of the read-out against control, counted positive when it falls. Usually IC50 stands for the concentration that gives 50% inhibition. High values mean a need for much substance, low ones inhibition by little substance. `Cc1nc(C2CCN(C(=O)c3ccc(OC(F)(F)F)cc3N)CC2)c2ncc(N3CCN(C)CC3)cc2n1` [BAY-693]: the residual activity is 49% in test [1]; 100% in [2]; 100% in test [3]; 100% in [4]; 87% in test [5]; 97% in test [6]. Besides, the residual activity in test [8] was 93%; in test [9], 99%; in test [10] it was 95%; in [11], 100%; in test [12], 94%; in [13], 100%. The residual activity was 79% in test [14]; 85% in [15]; 100% in test [16]; 88% in test [17]; 87% in [18]. Moreover, the inhibition in test [7] was 4.34%. Also, in the test on SK-BR-3, the 50% inhibitory concentration (IC50) is 22.4 µM (not active).
`CN1CCN(c2cnc3c(C4CCN(C(=O)c5ccc(OC(F)(F)F)cc5N)CC4)ncnc3c2)CC1` [BAY-885]: the residual activity in [1], in test [2], in [3], in test [4], in test [5] and in test [6] was 100% each time. Also, the residual activity in test [8], in [9], in test [10], in test [11], in test [12] and in [13] was 100% each time. For the same compound, the residual activity was 83% in test [14]; 93% in test [15]; 61% in test [16]; 93% in test [17]; 100% in test [18]. The inhibition in test [7] was 0.94%. In the test on SK-BR-3, the IC50 is on record as > 30 µM (not active).
